Laboratory results as given in paper PMC8667942 (Journal of Enzyme Inhibition and Medicinal Chemistry, 2021).
“And” between values parts separate entries of the source, which are not always exact repeats. Equal values may be shown once. “Also recorded” adds a separate entry of the source.

Key:
purified CYP3A4 = purified CYP3A4 (Homo sapiens, UniProt P08684); test: Spectral binding titration of purified CYP3A4; conditions: 1 µM purified CYP3A4, pH 7.4, no binding = no spectral change up to 200 μM; for Kd: read-out: CYP3A4 Kd (spectral dissociation constant)
Procedure: Purified CYP3A4 enzymes were diluted to 1 µM in 100 mM potassium phosphate buffer (pH 7.4) and then divided into two glass cuvettes. […] The binding titration was analysed using GraphPad Prism software (GraphPad, Inc., La Jolla, CA, USA).

human IP6K2 = target: T1, human IP6K2 (Homo sapiens, UniProt Q9UHH9); test: IP6K2 inhibition assay (ADP Glo kinase assay); type: biochemical; conditions: purified human IP6K2, 10 μM IP6, 10 μM ATP, 8-dose, triplicate, mean ± SEM
T1 construct: made in house; host or cells: Sf9 insect cells (baculovirus)
T1 sequence (Q9UHH9 1-426): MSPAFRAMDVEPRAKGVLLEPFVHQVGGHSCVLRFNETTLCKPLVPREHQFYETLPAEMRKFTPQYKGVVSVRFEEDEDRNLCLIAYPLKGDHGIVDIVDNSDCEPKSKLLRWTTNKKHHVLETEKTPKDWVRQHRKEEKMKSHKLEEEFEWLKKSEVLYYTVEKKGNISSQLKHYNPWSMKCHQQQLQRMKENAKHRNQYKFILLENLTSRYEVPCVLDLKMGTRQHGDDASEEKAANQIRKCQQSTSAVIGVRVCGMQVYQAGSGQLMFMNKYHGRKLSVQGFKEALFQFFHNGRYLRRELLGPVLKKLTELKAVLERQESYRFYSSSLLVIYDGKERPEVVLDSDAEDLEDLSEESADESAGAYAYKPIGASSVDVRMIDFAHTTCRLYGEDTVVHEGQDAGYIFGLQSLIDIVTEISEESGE
Procedure: Full-length human IP6K2 cDNA was subcloned into pFASTBAC1 plasmid (Gibco) with an N-terminal FLAG epitope sequence, and baculovirus was generated according to the manufacturer’s instructions. Sf9 insect cells were infected with baculovirus and incubated for 72 h. The cells were resuspended in lysis buffer [20 mM Tris–HCl (pH 7.9), 500 mM NaCl, 4 mM MgCl2, 0.4 mM EDTA, 2 mM DTT, 20% glycerol, 1 mM PMSF, and protease inhibitor cocktail (Roche)] and then disrupted with a Dounce homogeniser (pestle A, 3 series of 10 strokes with 10 min interval).
IP6K2 activity was measured using ADP Glo assay kit (Promega). All kinase assays were performed in low volume 384-well white plates (784075, Greiner-bioone) with a final volume of 5 μL. The reaction buffer contained 2 ng Flag-hIP6K2, 10 μM IP6, and 10 μM ATP in kinase buffer (50 mM Tris, 10 mM MgCl2, 2.5 mM DTT, 0.02% Triton-X-100, pH 6.8)[26]. For dose-dependent inhibition assay, 8 serial 2-fold dilutions of test compounds were prepared in DMSO. The final DMSO concentration was 5% in each reaction. The test compounds (5X, 25% DMSO in 1X kinase buffer) were dispensed to each well, and 2.5 X IP6K2 in kinase buffer were added. After 15 min incubation at room temperature, 2.5 X concentrations of IP6 and ATP were added to the plate. The reaction plate was incubated in a 37 °C incubator for 30 min. Next, the reactions were quenched with 5 μL of ADP Glo reagent for 40 min to deplete the remaining ATP. To convert the remaining ADP to ATP, 10 μl of detection reagent were added and incubated for 30–60 min. The luminescence of the final reactants was measured using the Mithras LB940 plate reader from Berthold. Samples were run in triplicate and the activity (%) was calculated using the following equations; Activity (%) = 100 × (μexperimental–μnegative)/(μpositive–μnegative). Negative control was DSMO-treated reaction. IC50 value was estimated using a logistic regression model with R package.

[1] = tested on: Akt phosphorylation at Thr308 in HCT116 cells; test: AKT activation in HCT116 cells (Western blot); type: cell-based, human; conditions: HCT116, 50 μM, 4 h, pAkt/Akt by Western blot
Procedure: Total proteins were quantified by bicinchoninic acid assay (23225, Thermo Fisher Scientific). Total 20 μg proteins were resolved in 8% SDS–PAGE, and then Akt phosphorylation was probed with primary antibodies against, phospho–Akt (Thr308) (4056) and Akt (9272) (Cell Signalling) and HRP-conjugated secondary antibody. The relative band intensities of Akt phosphorylation to total Akt were quantified with Image J software.

[2] = tested on: IP7 synthesis in HCT116 cells; test: Quantification of intracellular inositol phosphates by HPLC in radiolabeled HCT116; type: cell-based, human; conditions: HCT116, 50 μM, 4 h
Procedure: For HPLC analysis, 2 × 10^5 cells/60 mm dish of HCT116 were treated with 75 μCi [^3H] myo-inositol (NET1177001MC, PerkinElmer). After 3 days, soluble inositol polyphosphates from HCT116 (human colorectal cancer cell line) were extracted and analysed as previously described. Intracellular inositol phosphates were extracted with acid extraction buffer (1 M HClO4, 3 mM EDTA, and 0.1 mg/ml1 IP6), and neutralised with neutralisation buffer (1 M K2CO3 and 3 mM EDTA). The lysates were centrifuged for 10 min, and the soluble fraction was resolved by HPLC as described earlier. The lipid pellet was lysed with 0.1% Triton X-100 in NaOH overnight. Each fraction was mixed with Ultima-Flo AP liquid scintillation cocktail (6013599, PerkinElmer), and radioactivity was counted in a scintillation counter. Quantity of inositol phosphates was presented as total counts/min (CPM) normalised by total lipid contents.

[3] = target: T2, recombinant microsomal CYP3A4 (Homo sapiens, UniProt P08684); test: In vitro CYP450 activity assay (Vivid CYP450 Blue screening kit, BOMCC); type: in vitro ADME; conditions: recombinant CYP3A4, 100 nM treatment for 10 min, mean ± SEM
T2 construct: purchased Invitrogen P2858; host or cells: BACULOSOMES (microsomes of baculovirus-infected insect cells: own knowledge of the product)
T2 sequence (P08684 whole entry): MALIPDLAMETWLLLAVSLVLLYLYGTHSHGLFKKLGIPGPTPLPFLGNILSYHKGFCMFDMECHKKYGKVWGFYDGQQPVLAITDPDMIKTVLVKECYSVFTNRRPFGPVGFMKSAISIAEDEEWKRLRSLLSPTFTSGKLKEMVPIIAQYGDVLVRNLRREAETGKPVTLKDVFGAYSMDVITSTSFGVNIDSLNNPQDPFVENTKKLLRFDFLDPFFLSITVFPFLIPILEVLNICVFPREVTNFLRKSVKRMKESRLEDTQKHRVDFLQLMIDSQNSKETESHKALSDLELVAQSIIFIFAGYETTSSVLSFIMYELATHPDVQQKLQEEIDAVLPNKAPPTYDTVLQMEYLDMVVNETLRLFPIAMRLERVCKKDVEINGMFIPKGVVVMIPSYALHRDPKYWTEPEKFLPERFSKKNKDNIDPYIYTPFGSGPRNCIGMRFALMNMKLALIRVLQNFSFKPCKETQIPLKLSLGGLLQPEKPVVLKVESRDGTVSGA
Procedure: The activity of CYP3A4 was measured using the Vivid® CYP450 Blue screening kit (Cat No. P2858 for 3A4, Invitrogen). […] The system consisted of 100 μL of the final volume. The CYP450 substrate Vivid BOMCC and positive control inhibitor (ketoconazole), were dissolved in acetonitrile. […] The mixture containing test drugs, Vivid® CYP450 BACULOSOMES reagent, and Vivid® Regeneration system (Total 90 μL) was dispensed into a 96-well black plate and incubated at room temperature for 20 min. After adding 10 μL of Vivid® CYP450 reaction buffer (100 μM NADP, 10 μM Vivid® BOMCC), the mixture was incubated for 10 min at room temperature. […] The CYP450 3A4 inhibitory efficiency (%) of the test drug was calculated by comparing the reaction rates of the test compounds with the reaction rate of the positive control group (Ketoconazole) and the negative control group (0.1% Acetonitrile, 0.1% DMSO) using the measured fluorescence values.

Sequence of purified CYP3A4 (P08684 whole entry): as above

Row | SMILES | Kd (purified CYP3A4) [µM] | IC50 (human IP6K2) | CYP3A4 Kd (spectral dissociation constant) (purified CYP3A4) | increase in Akt phosphorylation at Thr308 compared to vehicle treatment [1] | IP4, IP5, and IP6 levels [2] | cellular IP7 synthesis (effect in words) [2] | decrease of cellular IP7 synthesis compared to DMSO [2] [%] | Relative 3A4 inhibition (% of TNP) [3] | melting point [°C]
1 | CS(=O)(=O)c1ccc(CNc2nc(NCc3cccc(C(F)(F)F)c3)nc3[nH]cnc23)cc1 [Compound 6, N^6-(4-(methylsulfonyl)benzyl)-N^2-(3-(trifluoromethyl)benzyl)-9H-purine-2,6-diamine] | 24.8 ± 4.3 | 4.6 ± 0.2 µM |  |  |  |  |  |  | 
2 | CS(=O)(=O)c1ccc(CNc2nc(NCc3ccc(F)cc3)nc3[nH]cnc23)cc1 [Compound 7, N^2-(4-fluorobenzyl)-N^6-(4-(methylsulfonyl)benzyl)-9H-purine-2,6-diamine] | 28.8 ± 2.7 | 7.3 ± 0.5 µM |  |  |  |  |  |  | 
3 | CS(=O)(=O)c1ccc(CNc2nc(NCc3ccc(Cl)cc3)nc3[nH]cnc23)cc1 [Compound 8, N^2-(4-chlorobenzyl)-N^6-(4-(methylsulfonyl)benzyl)-9H-purine-2,6-diamine] | 14.4 ± 3.3 |  |  |  |  |  |  |  | 
4 | CS(=O)(=O)c1ccc(CNc2nc(NCc3ccc([N+](=O)[O-])cc3)nc3[nH]cnc23)cc1 [Compound 9, N^6-(4-(methylsulfonyl)benzyl)-N^2-(4-nitrobenzyl)-9H-purine-2,6-diamine] |  | 16 µM and 16.8 µM | did not show any binding spectral change; also recorded: without binding to CYP3A4; also recorded: No binding^d | more than 1.5 fold | without notable changes | reduced cellular IP7 synthesis | ~44 |  | 
5 | FC(F)(F)c1cccc(CNc2nc(NCc3cccnc3)c3nc[nH]c3n2)c1 [Compound 10, N^6-(pyridin-3-ylmethyl)-N^2-(3-(trifluoromethyl)benzyl)-9H-purine-2,6-diamine] | 1.4 ± 0.5 | 5.3 ± 0.3 µM |  |  |  |  |  |  | 
6 | Fc1ccc(CNc2nc(NCc3cccnc3)c3nc[nH]c3n2)cc1 [Compound 11, N^2-(4-fluorobenzyl)-N^6-(pyridin-3-ylmethyl)-9H-purine-2,6-diamine] | 3 ± 0.6 | 5.9 ± 0.2 µM |  |  |  |  |  |  | 
7 | Clc1ccc(CNc2nc(NCc3cccnc3)c3nc[nH]c3n2)cc1 [Compound 12, N^2-(4-chlorobenzyl)-N^6-(pyridin-3-ylmethyl)-9H-purine-2,6-diamine] | 1.8 ± 0.6 |  |  |  |  |  |  |  | 
8 | O=[N+]([O-])c1ccc(CNc2nc(NCc3cccnc3)c3nc[nH]c3n2)cc1 [Compound 13, N^2-(4-nitrobenzyl)-N^6-(pyridin-3-ylmethyl)-9H-purine-2,6-diamine] | 2 ± 0.5 | 3.3 ± 0.8 µM |  |  |  |  |  | 126 ± 1 % of TNP | 251
9 | FC(F)(F)c1cccc(CNc2nc(NCc3ncc[nH]3)c3nc[nH]c3n2)c1 [Compound 14, N^6-((1H-imidazol-2-yl)methyl)-N^2-(3-(trifluoromethyl)benzyl)-9H-purine-2,6-diamine] | 22.2 ± 4.5 | 34.7 ± 0.7 µM |  |  |  |  |  |  | 
10 | Fc1ccc(CNc2nc(NCc3ncc[nH]3)c3nc[nH]c3n2)cc1 [Compound 15, N^6-((1H-imidazol-2-yl)methyl)-N^2-(4-fluorobenzyl)-9H-purine-2,6-diamine] |  | 24.7 ± 0.2 µM | did not display any binding spectral change; also recorded: without binding to CYP3A4; also recorded: No binding^d | more than 1.5 fold | without notable changes | reduced cellular IP7 synthesis |  |  | 
11 | Clc1ccc(CNc2nc(NCc3ncc[nH]3)c3nc[nH]c3n2)cc1 [Compound 16, N^6-((1H-imidazol-2-yl)methyl)-N^2-(4-chlorobenzyl)-9H-purine-2,6-diamine] | 40.5 ± 8 | 19.9 ± 0.1 µM |  |  |  |  |  |  | 
12 | FC(F)(F)c1cccc(CNc2nc(NCc3nc4ccccc4[nH]3)c3nc[nH]c3n2)c1 [Compound 17, N^6-((1H-benzo[d]imidazol-2-yl)methyl)-N^2-(3-(trifluoromethyl)benzyl)-9H-purine-2,6-diamine] | 7.9 ± 0.8 | 12.6 ± 0.4 µM |  |  |  |  |  | 116 ± 3 % of TNP | 289
13 | Fc1ccc(CNc2nc(NCc3nc4ccccc4[nH]3)c3nc[nH]c3n2)cc1 [Compound 18, N^6-((1H-benzo[d]imidazol-2-yl)methyl)-N^2-(4-fluorobenzyl)-9H-purine-2,6-diamine] | 11.1 ± 1 | 13.2 ± 0.4 µM |  |  |  |  |  | 120 ± 1 % of TNP | 287
14 | Clc1ccc(CNc2nc(NCc3nc4ccccc4[nH]3)c3nc[nH]c3n2)cc1 [Compound 19, N^6-((1H-benzo[d]imidazol-2-yl)methyl)-N^2-(4-chlorobenzyl)-9H-purine-2,6-diamine] | 16.9 ± 3.7 | 19.3 ± 0.27 µM |  |  |  |  |  | 120 ± 0.66 % of TNP | 160
15 | O=[N+]([O-])c1ccc(CNc2nc(NCc3nc4ccccc4[nH]3)c3nc[nH]c3n2)cc1 [Compound 20, N^6-((1H-benzo[d]imidazol-2-yl)methyl)-N^2-(4-nitrobenzyl)-9H-purine-2,6-diamine] |  | 21.8 ± 0.3 µM | did not show any spectral dissociation constant value; also recorded: without binding to CYP3A4; also recorded: No binding^d | more than 1.5 fold | without notable changes | reduced cellular IP7 synthesis |  | 65.7 ± 1.97 % of TNP | 153
